Data published in PubChem BioAssay AID2060484 (Molecular Pharmacology Branch, DTP, NCI, 2025).

Tested on: SUM149PT spheroids with HUVEC/MSC, viability
Test: Anticancer human tumor SUM149PT cell line growth inhibition [GQUAD];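 also: spheroids exposed to drugs for seven days before readout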;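 as to viability, T/C: percent viability relative to DMSO vehicle control taken as 100%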
Details: for IC50: curve of first compound; for viability, T/C: stronger effect = lower value
Summary of the method: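 Tumor cells were grown as complex spheroids with HUVEC endothelial cells and mesenchymal stem cells as stroma. G-quadruplex stabilizers were combined with targeted agents over half-log dilutions from near the clinical Cmax, or from 10 microM.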

[1] = second compound 0.0316 µM, first compound 0.0316 µM
[2] = second compound 0.0316 µM, first compound 0.1 µM
[3] = second compound 0.0316 µM, first compound 0.316 µM
[4] = second compound 0.0316 µM, first compound 1 µM
[5] = second compound 0.0316 µM, first compound 3.16 µM
[6] = second compound 0.0316 µM, first compound 10 µM
[7] = second compound 0.1 µM, first compound 0.0316 µM
[8] = second compound 0.1 µM, first compound 0.1 µM
[9] = second compound 0.1 µM, first compound 0.316 µM
[10] = second compound 0.1 µM, first compound 1 µM
[11] = second compound 0.1 µM, first compound 3.16 µM
[12] = second compound 0.1 µM, first compound 10 µM
[13] = second compound 0.316 µM, first compound 0.0316 µM
[14] = second compound 0.316 µM, first compound 0.1 µM
[15] = second compound 0.316 µM, first compound 0.316 µM
[16] = second compound 0.316 µM, first compound 1 µM
[17] = second compound 0.316 µM, first compound 3.16 µM
[18] = second compound 0.316 µM, first compound 10 µM
[19] = second compound 1 µM, first compound 0.0316 µM
[20] = second compound 1 µM, first compound 0.1 µM
[21] = second compound 1 µM, first compound 0.316 µM
[22] = second compound 1 µM, first compound 1 µM
[23] = second compound 1 µM, first compound 3.16 µM
[24] = second compound 1 µM, first compound 10 µM
[25] = second compound 3.16 µM, first compound 0.0316 µM
[26] = second compound 3.16 µM, first compound 0.1 µM
[27] = second compound 3.16 µM, first compound 0.316 µM
[28] = second compound 3.16 µM, first compound 1 µM
[29] = second compound 3.16 µM, first compound 3.16 µM
[30] = second compound 3.16 µM, first compound 10 µM
[31] = second compound 10 µM, first compound 0.0316 µM
[32] = second compound 10 µM, first compound 0.1 µM
[33] = second compound 10 µM, first compound 0.316 µM
[34] = second compound 10 µM, first compound 1 µM
[35] = second compound 10 µM, first compound 3.16 µM
[36] = second compound 10 µM, first compound 10 µM

For `C#Cc1c(F)ccc2cc(O)cc(-c3ncc4c(N5CC6CCC(C5)N6)nc(OCC56CCCN5CC(F)C6)nc4c3F)c12` (stereo unspecified) + Cc1cnc(CNC(=O)c2c(=O)c3ccc(N4CCCN(C)CC4)nc3n3c2sc2ccccc23)cn1, the IC50 (second compound 0.0316 µM) was 545 nM, the IC50 (second compound 0.1 µM) was 243 nM and the IC50 (second compound 0.316 µM) was 42.2 nM. It also gave an IC50 (second compound 1 µM) of under 31.6 nM, an IC50 (second compound 3.16 µM) of under 31.6 nM and an IC50 (second compound 10 µM) of under 31.6 nM. The viability, T/C [1] was 90.1%, the viability, T/C [2] was 65.5% and the viability, T/C [3] was 66.2%. For the same compound, the viability, T/C [4] was 35.1%, the viability, T/C [5] was 36.6% and the viability, T/C [6] was 29%. The viability, T/C [7] was 51.6%, the viability, T/C [8] was 61.4% and the viability, T/C [9] was 45.2%. The viability, T/C [10] was 38.9%, the viability, T/C [11] was 30.7% and the viability, T/C [12] was 25.5%. It also gave a viability, T/C [13] of 48.6%, a viability, T/C [14] of 52.2% and a viability, T/C [15] of 37.9%. It also gave a viability, T/C [16] of 34.1%, a viability, T/C [17] of 28.1% and a viability, T/C [18] of 22.9%. For the same compound, the viability, T/C [19] was 34.1%, the viability, T/C [20] was 38.6% and the viability, T/C [21] was 33.4%. The viability, T/C [22] was 27.1%, the viability, T/C [23] was 24.2% and the viability, T/C [24] was 20.1%. It also gave a viability, T/C [25] of 35.5%, a viability, T/C [26] of 32.1% and a viability, T/C [27] of 31.4%. It also gave a viability, T/C [28] of 25.6%, a viability, T/C [29] of 23.3% and a viability, T/C [30] of 19.6%. For the same compound, the viability, T/C [31] was 0.13%, the viability, T/C [32] was 2.68% and the viability, T/C [33] was 11.3%. The viability, T/C [34] was 0.63%, the viability, T/C [35] was 2.15% and the viability, T/C [36] was 0.92%.
`CC1COCCN1c1cc(C2(S(C)(=N)=O)CC2)nc(-c2ccnc3[nH]ccc23)n1` (stereo unspecified) + CN(C)c1ccc(Nc2c3ccc(NC(=O)CCN4CCCC4)cc3nc3cc(NC(=O)CCN4CCCC4)ccc23)cc1 gave an IC50 (second compound 0.0316 µM) of 2650 nM, an IC50 (second compound 0.1 µM) of 2760 nM and an IC50 (second compound 0.316 µM) of 2310 nM. It also gave an IC50 (second compound 1 µM) of 2230 nM, an IC50 (second compound 3.16 µM) of 1900 nM and an IC50 (second compound 10 µM) of 1920 nM. The viability, T/C [1] was 106%, the viability, T/C [2] was 91.5% and the viability, T/C [3] was 97.2%. It also gave a viability, T/C [4] of 80.9%, a viability, T/C [5] of 44.2% and a viability, T/C [6] of 29.4%. It also gave a viability, T/C [7] of 97.8%, a viability, T/C [8] of 103% and a viability, T/C [9] of 81.5%. It also gave a viability, T/C [10] of 89.4%, a viability, T/C [11] of 44.7% and a viability, T/C [12] of 25.2%. The viability, T/C [13] was 90.3%, the viability, T/C [14] was 90.4% and the viability, T/C [15] was 83.2%. It also gave a viability, T/C [16] of 74.7%, a viability, T/C [17] of 40.4% and a viability, T/C [18] of 29.6%. For the same compound, the viability, T/C [19] was 90.4%, the viability, T/C [20] was 82.7% and the viability, T/C [21] was 77.5%. For the same compound, the viability, T/C [22] was 69.5%, the viability, T/C [23] was 41.1% and the viability, T/C [24] was 22.5%. For the same compound, the viability, T/C [25] was 84.2%, the viability, T/C [26] was 90.7% and the viability, T/C [27] was 86.1%. The viability, T/C [28] was 69.7%, the viability, T/C [29] was 34.3% and the viability, T/C [30] was 23.4%. For the same compound, the viability, T/C [31] was 95.8%, the viability, T/C [32] was 81.4% and the viability, T/C [33] was 88.6%. The viability, T/C [34] was 67%, the viability, T/C [35] was 36.9% and the viability, T/C [36] was 24.9%.
`CC1COCCN1c1cc(C2(O)CC3CCC(C2)O3)c2cnn(-c3ccn[nH]3)c2n1` (stereo unspecified) + Cc1[nH]c2ccc(F)cc2c1-c1nc2c3cccnc3c3ncccc3c2[nH]1 gave an IC50 (second compound 0.0316 µM) of 73.8 nM, an IC50 (second compound 0.1 µM) of 77.8 nM and an IC50 (second compound 0.316 µM) of 84.1 nM. It also gave an IC50 (second compound 1 µM) of 76 nM, an IC50 (second compound 3.16 µM) of 71.1 nM and an IC50 (second compound 10 µM) of 61.9 nM. It also gave a viability, T/C [1] of 74.5%, a viability, T/C [2] of 40.2% and a viability, T/C [3] of 27.5%. It also gave a viability, T/C [4] of 23.9%, a viability, T/C [5] of 22% and a viability, T/C [6] of 15.9%. It also gave a viability, T/C [7] of 78.9%, a viability, T/C [8] of 40.5% and a viability, T/C [9] of 28.3%. The viability, T/C [10] was 22.6%, the viability, T/C [11] was 23.9% and the viability, T/C [12] was 15.4%. For the same compound, the viability, T/C [13] was 80.9%, the viability, T/C [14] was 45.6% and the viability, T/C [15] was 24.6%. The viability, T/C [16] was 25.5%, the viability, T/C [17] was 25.4% and the viability, T/C [18] was 14.7%. It also gave a viability, T/C [19] of 81.8%, a viability, T/C [20] of 40.2% and a viability, T/C [21] of 24.8%. It also gave a viability, T/C [22] of 23.5%, a viability, T/C [23] of 23.6% and a viability, T/C [24] of 17.6%. The viability, T/C [25] was 78.4%, the viability, T/C [26] was 38.2% and the viability, T/C [27] was 22.3%. For the same compound, the viability, T/C [28] was 25.8%, the viability, T/C [29] was 23.5% and the viability, T/C [30] was 15.3%. For the same compound, the viability, T/C [31] was 74.9%, the viability, T/C [32] was 32.2% and the viability, T/C [33] was 22.9%. It also gave a viability, T/C [34] of 23.1%, a viability, T/C [35] of 24.7% and a viability, T/C [36] of 16.2%.
